Numbers after ± are expanded uncertainties.
Settings: Crystal; DSC

Triple point temperature: 429.75 ± 1.2 K
SMILES: OCc1ccc(O[C@@H]2O[C@H](CO)[C@@H](O)[C@H](O)[C@H]2O)cc1 [gastrodin]
